Legend:
Venturia inaequalis = experiment: Spore germination test; assay type: cell-based; conditions: VI, 48 hours
Experimental: VI = Venturia inaequalis
The test chemical was dissolved or suspended in acetone in an amount such that 0.8 ml of the resulting suspension or solution, mixed with 40 ml water agar produced a water agar solution containing 40, 10, 2.5 and 1 ppm of test chemical. The resulting agar solution, at 50° C., was then divided equally between two sterile petri dishes, each having four separated quadrants, and allowed to solidify. […] quadrants of each dish were flooded with 0.1 ml of a spore suspension in sterile water. Spores of two pathogens, Erysiphe polygoni and Uromyes phaseoli, from infected plant leaves, were brushed on the remaining two quadrants. The tests were then incubated 48 hours, at 24° C.
Readings were then taken and the percentage of germinated spores calculated. From this percentage, a spore germination rating was assigned as follows: […]

Pyricularia oryzae = experiment: microbe, parasite or virus in culture; assay type: cell-based; conditions: for inhibition at 5 ppm / inhibition at 10 ppm / inhibition at 20 ppm / inhibition at 40 ppm: Pyricularia oryzae, 72 h; for inhibition at 5 ppm: read-out: Percent Fungus Growth Inhibition, PO, 5 ppm, 72 hours; for inhibition at 10 ppm: read-out: Percent Fungus Growth Inhibition, PO, 10 ppm, 72 hours; for inhibition at 20 ppm: read-out: Percent Fungus Growth Inhibition, PO, 20 ppm, 72 hours; for inhibition at 40 ppm: read-out: Percent Fungus Growth Inhibition, PO, 40 ppm, 72 hours; for Percent Fungus Growth Inhibition: PO, 72 hours

Cc1cc(Oc2nsnc(Cl)c2=O)cc(C)c1Br [Compound 60, 3-[(4-bromo-3,5-dimethyl)-phenoxy]-5-chloro-4H--1,2,6-thiadiazin-4-one]
Spore Germination Rating (Venturia inaequalis; 1.0 ppm): 2 (40-60) | Spore Germination Rating (Venturia inaequalis; 2.5 ppm): 1 (10-40) | Spore Germination Rating (Venturia inaequalis; 10 ppm): 0 (0-10) | Spore Germination Rating (Venturia inaequalis; 40 ppm): 0 (0-10) | inhibition at 5 ppm (Pyricularia oryzae): 32% | inhibition at 10 ppm (Pyricularia oryzae): 43% | inhibition at 20 ppm (Pyricularia oryzae): 43% | inhibition at 40 ppm (Pyricularia oryzae): 64%

3-chloro-5-(bromophenoxy)-4H-1,2,6-thiadiazin-4-one [Compound 33]
Spore Germination Rating (Venturia inaequalis; 1.0 ppm): 0 (0-10) | Spore Germination Rating (Venturia inaequalis; 2.5 ppm): 0 (0-10) | Spore Germination Rating (Venturia inaequalis; 10 ppm): 0 (0-10) | Spore Germination Rating (Venturia inaequalis; 40 ppm): 0 (0-10) | Percent Fungus Growth Inhibition (Pyricularia oryzae; 5 ppm): 53% | Percent Fungus Growth Inhibition (Pyricularia oryzae; 10 ppm): 68% | Percent Fungus Growth Inhibition (Pyricularia oryzae; 20 ppm): 100% | Percent Fungus Growth Inhibition (Pyricularia oryzae; 40 ppm): 100%

O=C(Nc1ccccc1)Oc1ccc(Oc2nsnc(Cl)c2=O)cc1 [Compound 37, 3-chloro-5-[4-(phenylaminocarbonyloxy)phenoxy]-4H-1,2,6,-thiadiazin-4-one]
inhibition at 5 ppm (Pyricularia oryzae): 44% | inhibition at 10 ppm (Pyricularia oryzae): 44% | inhibition at 20 ppm (Pyricularia oryzae): 61% | inhibition at 40 ppm (Pyricularia oryzae): 61%

O=C(O)c1ccc(Oc2nsnc(Cl)c2=O)cc1 [Compound 50, 3-(4-carboxyphenoxy)-5-chloro-4H--1,2,6-thiadiazin-4-one]
Spore Germination Rating (Venturia inaequalis; 1.0 ppm): 4 (80-100) | Spore Germination Rating (Venturia inaequalis; 2.5 ppm): 4 (80-100) | Spore Germination Rating (Venturia inaequalis; 10 ppm): 4 (80-100) | Spore Germination Rating (Venturia inaequalis; 40 ppm): 0 (0-10) | inhibition at 5 ppm (Pyricularia oryzae): 11% | inhibition at 10 ppm (Pyricularia oryzae): 0% | inhibition at 20 ppm (Pyricularia oryzae): 11% | inhibition at 40 ppm (Pyricularia oryzae): 100%

O=c1c(Cl)nsnc1Oc1ccc(F)cc1 [Compound 11, 3-chloro-5-(4-fluorophenoxy)-4H--1,2,6-thiadiazin-4-one]
Spore Germination Rating (Venturia inaequalis; 1.0 ppm): 4 (80-100) | Spore Germination Rating (Venturia inaequalis; 2.5 ppm): 1 (10-40) | Spore Germination Rating (Venturia inaequalis; 10 ppm): 0 (0-10) | Spore Germination Rating (Venturia inaequalis; 40 ppm): 0 (0-10) | inhibition at 5 ppm (Pyricularia oryzae): 15% | inhibition at 10 ppm (Pyricularia oryzae): 38% | inhibition at 20 ppm (Pyricularia oryzae): 54% | inhibition at 40 ppm (Pyricularia oryzae): 62%

CC(=O)c1ccc(Oc2nsnc(Cl)c2=O)cc1 [Compound 47, 3-(4-acetylphenoxy)-5-chloro-4H--1,2,6-thiadiazin-4-one]
Spore Germination Rating (Venturia inaequalis; 1.0 ppm): 1 (10-40) | Spore Germination Rating (Venturia inaequalis; 2.5 ppm): 0 (0-10) | Spore Germination Rating (Venturia inaequalis; 10 ppm): 0 (0-10) | Spore Germination Rating (Venturia inaequalis; 40 ppm): 0 (0-10) | inhibition at 5 ppm (Pyricularia oryzae): 78% | inhibition at 10 ppm (Pyricularia oryzae): 78% | inhibition at 20 ppm (Pyricularia oryzae): 100% | inhibition at 40 ppm (Pyricularia oryzae): 89%

CC(=O)c1cccc(Oc2nsnc(Cl)c2=O)c1 [Compound 48, 3-(3-acetylphenoxy)-5-chloro-4H--1,2,6-thiadiazin-4-one]
Spore Germination Rating (Venturia inaequalis; 1.0 ppm): 3 (60-80) | Spore Germination Rating (Venturia inaequalis; 2.5 ppm): 1 (10-40) | Spore Germination Rating (Venturia inaequalis; 10 ppm): 0 (0-10) | Spore Germination Rating (Venturia inaequalis; 40 ppm): 0 (0-10) | inhibition at 5 ppm (Pyricularia oryzae): 56% | inhibition at 10 ppm (Pyricularia oryzae): 67% | inhibition at 20 ppm (Pyricularia oryzae): 100% | inhibition at 40 ppm (Pyricularia oryzae): 100%

O=c1c(Cl)nsnc1Oc1ccc([N+](=O)[O-])cc1 [Compound 9, 3-chloro-5-(4-nitrophenoxy)-4H--1,2,6-thiadiazin-4-one]
Spore Germination Rating (Venturia inaequalis; 1.0 ppm): 0 (0-10) | Spore Germination Rating (Venturia inaequalis; 2.5 ppm): 0 (0-10) | Spore Germination Rating (Venturia inaequalis; 10 ppm): 0 (0-10) | Spore Germination Rating (Venturia inaequalis; 40 ppm): 0 (0-10) | inhibition at 5 ppm (Pyricularia oryzae): 22% | inhibition at 10 ppm (Pyricularia oryzae): 48% | inhibition at 20 ppm (Pyricularia oryzae): 70% | inhibition at 40 ppm (Pyricularia oryzae): 93%

3-chloro-5-[methylaminocarbonyloxy)phenoxyl]-4H-1,2,6-thiadiazin-4-one [Compound 36]
Percent Fungus Growth Inhibition (Pyricularia oryzae; 5 ppm): 31% | Percent Fungus Growth Inhibition (Pyricularia oryzae; 10 ppm): 69% | Percent Fungus Growth Inhibition (Pyricularia oryzae; 20 ppm): 100% | Percent Fungus Growth Inhibition (Pyricularia oryzae; 40 ppm): 100%

O=c1c(Cl)nsnc1Oc1cccc(Cl)c1 [Compound 13, 3-chloro-5-(3-chlorophenoxy)-4H--1,2,6-thiadiazin-4-one]
Spore Germination Rating (Venturia inaequalis; 1.0 ppm): 1 (10-40) | Spore Germination Rating (Venturia inaequalis; 2.5 ppm): 0 (0-10) | Spore Germination Rating (Venturia inaequalis; 10 ppm): 0 (0-10) | Spore Germination Rating (Venturia inaequalis; 40 ppm): 0 (0-10) | inhibition at 5 ppm (Pyricularia oryzae): 44% | inhibition at 10 ppm (Pyricularia oryzae): 42% | inhibition at 20 ppm (Pyricularia oryzae): 74% | inhibition at 40 ppm (Pyricularia oryzae): 100%

Cc1cc(Oc2nsnc(Cl)c2=O)cc(C)c1Cl [Compound 59, 3-chloro-5-[(4-chloro-3,5-dimethyl)phenoxy]-4H--1,2,6-thiadiazin-4-one]
Spore Germination Rating (Venturia inaequalis; 1.0 ppm): 1 (10-40) | Spore Germination Rating (Venturia inaequalis; 2.5 ppm): 1 (10-40) | Spore Germination Rating (Venturia inaequalis; 10 ppm): 0 (0-10) | Spore Germination Rating (Venturia inaequalis; 40 ppm): 1 (10-40) | inhibition at 5 ppm (Pyricularia oryzae): 50% | inhibition at 10 ppm (Pyricularia oryzae): 61% | inhibition at 20 ppm (Pyricularia oryzae): 50% | inhibition at 40 ppm (Pyricularia oryzae): 50%

Cc1cc(Oc2nsnc(Cl)c2=O)ccc1Cl [Compound 54, 3-chloro-5-(4-chloro-3-methylphenoxy)-4H--1,2,6-thiadiazin-4-one]
Spore Germination Rating (Venturia inaequalis; 1.0 ppm): 1 (10-40) | Spore Germination Rating (Venturia inaequalis; 2.5 ppm): 0 (0-10) | Spore Germination Rating (Venturia inaequalis; 10 ppm): 0 (0-10) | Spore Germination Rating (Venturia inaequalis; 40 ppm): 0 (0-10) | inhibition at 5 ppm (Pyricularia oryzae): 50% | inhibition at 10 ppm (Pyricularia oryzae): 53% | inhibition at 20 ppm (Pyricularia oryzae): 56% | inhibition at 40 ppm (Pyricularia oryzae): 65%

Cc1cc(Cl)ccc1Oc1nsnc(Cl)c1=O [Compound 55, 3-chloro-5-(4-chloro-2-methylphenoxy)-4H--1,2,6-thiadiazin-4-one]
Spore Germination Rating (Venturia inaequalis; 1.0 ppm): 1 (10-40) | Spore Germination Rating (Venturia inaequalis; 2.5 ppm): 0 (0-10) | Spore Germination Rating (Venturia inaequalis; 10 ppm): 0 (0-10) | Spore Germination Rating (Venturia inaequalis; 40 ppm): 0 (0-10) | inhibition at 5 ppm (Pyricularia oryzae): 41% | inhibition at 10 ppm (Pyricularia oryzae): 59% | inhibition at 20 ppm (Pyricularia oryzae): 51% | inhibition at 40 ppm (Pyricularia oryzae): 53%

N#Cc1ccc(Oc2nsnc(Cl)c2=O)cc1 [Compound 10, 3-chloro-5-(4-cyanophenoxy)-4H--1,2,6-thiadiazin-4-one]
Spore Germination Rating (Venturia inaequalis; 1.0 ppm): 0 (0-10) | Spore Germination Rating (Venturia inaequalis; 2.5 ppm): 0 (0-10) | Spore Germination Rating (Venturia inaequalis; 10 ppm): 0 (0-10) | Spore Germination Rating (Venturia inaequalis; 40 ppm): 0 (0-10) | inhibition at 5 ppm (Pyricularia oryzae): 19% | inhibition at 10 ppm (Pyricularia oryzae): 19% | inhibition at 20 ppm (Pyricularia oryzae): 58% | inhibition at 40 ppm (Pyricularia oryzae): 77%

O=c1c(Cl)nsnc1Oc1ccc(Cl)cc1Cl [Compound 17, 3-chloro-5-(2,4-dichlorophenoxy)-4H--1,2,6-thiadiazin-4-one]
Spore Germination Rating (Venturia inaequalis; 1.0 ppm): 0 (0-10) | Spore Germination Rating (Venturia inaequalis; 2.5 ppm): 0 (0-10) | Spore Germination Rating (Venturia inaequalis; 10 ppm): 0 (0-10) | Spore Germination Rating (Venturia inaequalis; 40 ppm): 0 (0-10) | inhibition at 5 ppm (Pyricularia oryzae): 29% | inhibition at 10 ppm (Pyricularia oryzae): 48% | inhibition at 20 ppm (Pyricularia oryzae): 29% | inhibition at 40 ppm (Pyricularia oryzae): 71%

Cc1ccc(Cl)c(Oc2nsnc(Cl)c2=O)c1 [Compound 56, 3-chloro-5-[(2-chloro-5-methyl)phenoxy]-4H--1,2,6-thiadiazin-4-one]
inhibition at 5 ppm (Pyricularia oryzae): 38% | inhibition at 10 ppm (Pyricularia oryzae): 67% | inhibition at 20 ppm (Pyricularia oryzae): 100% | inhibition at 40 ppm (Pyricularia oryzae): 100%

CSc1ccc(Oc2nsnc(Cl)c2=O)cc1 [Compound 39, 3-chloro-5-[(4-methylthio)phenoxy]-4H-1,2,6,-thiadiazin-4-one]
inhibition at 5 ppm (Pyricularia oryzae): 42% | inhibition at 10 ppm (Pyricularia oryzae): 61% | inhibition at 20 ppm (Pyricularia oryzae): 61% | inhibition at 40 ppm (Pyricularia oryzae): 61%

COc1ccc(Cl)c(Oc2nsnc(Cl)c2=O)c1 [Compound 51, 3-chloro-5-[(2-chloro-5-methoxy)phenoxy]-4H--1,2,6-thiadiazin-4-one]
inhibition at 5 ppm (Pyricularia oryzae): 46% | inhibition at 10 ppm (Pyricularia oryzae): 77% | inhibition at 20 ppm (Pyricularia oryzae): 92% | inhibition at 40 ppm (Pyricularia oryzae): 100%

O=c1c(Cl)nsnc1Oc1ccc([N+](=O)[O-])cc1Cl [Compound 53, 3-chloro-5-(2-chloro-4-nitrophenoxy)-4H--1,2,6-thiadiazin-4-one]
inhibition at 5 ppm (Pyricularia oryzae): 69% | inhibition at 10 ppm (Pyricularia oryzae): 75% | inhibition at 20 ppm (Pyricularia oryzae): 78% | inhibition at 40 ppm (Pyricularia oryzae): 67%

CS(=O)(=O)c1ccc(Oc2nsnc(Cl)c2=O)cc1 [Compound 41, 3-chloro-5-[(4-methylsulfonyl)phenoxy]-4H--1,2,6-thiadiazin-4-one]
inhibition at 5 ppm (Pyricularia oryzae): 22% | inhibition at 10 ppm (Pyricularia oryzae): 56% | inhibition at 20 ppm (Pyricularia oryzae): 59% | inhibition at 40 ppm (Pyricularia oryzae): 93%

O=C(OCc1ccccc1)Oc1ccc(Oc2nsnc(Cl)c2=O)cc1 [Compound 38, 3-chloro-5-[4-(phenylmethoxycarbonyloxy)phenoxyl]-4H-1,2,6-thiadiazin-4-one]
inhibition at 5 ppm (Pyricularia oryzae): 8% | inhibition at 10 ppm (Pyricularia oryzae): 15% | inhibition at 20 ppm (Pyricularia oryzae): 23% | inhibition at 40 ppm (Pyricularia oryzae): 46%

N#CCc1ccc(Oc2nsnc(Cl)c2=O)cc1 [Compound 46, 3-chloro-5-[(4-cyanomethyl)-phenoxy]4H--1,2,6-thiadiazin-4-one]
inhibition at 5 ppm (Pyricularia oryzae): 38% | inhibition at 10 ppm (Pyricularia oryzae): 77% | inhibition at 20 ppm (Pyricularia oryzae): 100% | inhibition at 40 ppm (Pyricularia oryzae): 100%
